The text below walks through data of publication PMC6061170, “Synthesis and biological investigations of 3β-aminotropane arylamide derivatives with atypical antipsychotic profile” (Medicinal Chemistry Research, 2018).

The target of data set [1] is T1, dopamine D2 receptors (Rattus norvegicus, UniProt P61169). In words: Radioligand binding assay, D2 receptors.
The target of data set [2] is T2, serotonin 5-HT1A receptors (Rattus norvegicus, UniProt P19327).
T2 construct: from tissue; host or cells: rat brain tissues
T2 sequence (P19327 1-422): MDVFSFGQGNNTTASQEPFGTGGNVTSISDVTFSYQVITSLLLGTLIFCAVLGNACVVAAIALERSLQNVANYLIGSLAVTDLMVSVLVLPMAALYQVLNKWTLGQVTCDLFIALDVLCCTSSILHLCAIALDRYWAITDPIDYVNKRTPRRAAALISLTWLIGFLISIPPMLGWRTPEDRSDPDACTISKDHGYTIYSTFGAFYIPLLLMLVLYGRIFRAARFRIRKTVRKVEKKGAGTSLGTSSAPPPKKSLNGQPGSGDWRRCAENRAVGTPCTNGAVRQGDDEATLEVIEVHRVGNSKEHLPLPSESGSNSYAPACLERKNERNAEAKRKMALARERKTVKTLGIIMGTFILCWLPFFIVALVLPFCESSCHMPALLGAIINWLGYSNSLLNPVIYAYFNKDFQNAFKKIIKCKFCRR
In words: Radioligand binding assay, 5-HT1A receptors. The protocol:
All compounds were tested for their affinities for 5-HT1A, 5-HT2A, and D2 receptors according to previously described procedures (Stefanowicz et al. [2016]).
Competition binding studies were performed according to a previously described procedure in rat brain tissues (Stefanowicz et al. [2016]).

For data set [3], the target named is T3, serotonin 5-HT2A receptors (Rattus norvegicus, UniProt P14842).
T3 construct: from tissue; host or cells: rat brain tissues
As to the kind of experiment: Radioligand binding assay, 5-HT2A receptors.

Data set [4] relates to CD-1 mice. As to the kind of experiment: Spontaneous locomotor activity. It counts as in vivo.
The test system of data set [5] is Albino Swiss mice. In words: Four-plate test.
Data set [6] has as its system Albino Swiss mice. As to the kind of experiment: Forced swim test. The following applies: for Immobility time (s) Mean ± SEM: last 4 min of session.
Data set [7] relates to CD-1 mice. As to the kind of experiment: MK-801-induced hyperlocomotor activity.
The test system of data set [8] is CD-1 mice. In words: d-Amphetamine-induced hyperlocomotor activity.
Data set [9] deals with T3, serotonin 5-HT2A receptors. Set-up: method as in Słowiński et al. 2011, 2013; Stefanowicz et al. 2016. The conditions noted are these: earlier lead structures, Fig. 1/Fig. 2; ref Słowiński et al. 2011, 2013; Stefanowicz et al. 2016; cited from earlier work.
Data set [10] addresses T1, dopamine D2 receptors. On the set-up: method as in Słowiński et al. 2011, 2013; Stefanowicz et al. 2016. The conditions noted are these: earlier lead structures, Fig. 1/Fig. 2; ref Słowiński et al. 2011, 2013; Stefanowicz et al. 2016; cited from earlier work.
Data set [11] addresses T2, serotonin 5-HT1A receptors. The conditions noted are these: earlier lead structures, Fig. 1/Fig. 2; ref Słowiński et al. 2011, 2013; Stefanowicz et al. 2016; cited from earlier work.
[12] abbreviates: 2.5 mg/kg i.p. 30 min before test.
Where [13] appears, read: 5 mg/kg i.p. 30 min before test.
The mark [14] stands for this setting: 10 mg/kg i.p. 30 min before test.

Where two headings read alike, the source gives them in different places.

T1 sequence (P61169 1-415 isoform P61169-2): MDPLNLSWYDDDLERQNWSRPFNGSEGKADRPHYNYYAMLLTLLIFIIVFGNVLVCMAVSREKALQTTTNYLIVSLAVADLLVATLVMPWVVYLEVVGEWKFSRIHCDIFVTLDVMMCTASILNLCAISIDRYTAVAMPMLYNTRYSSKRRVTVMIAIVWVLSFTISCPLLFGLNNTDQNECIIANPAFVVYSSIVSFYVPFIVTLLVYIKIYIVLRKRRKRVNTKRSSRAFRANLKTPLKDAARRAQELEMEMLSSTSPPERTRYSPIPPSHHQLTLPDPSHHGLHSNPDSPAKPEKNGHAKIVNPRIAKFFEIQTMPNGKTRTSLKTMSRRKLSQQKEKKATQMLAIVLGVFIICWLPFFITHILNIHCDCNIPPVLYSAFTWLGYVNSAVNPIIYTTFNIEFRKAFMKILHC
T3 sequence (P14842 whole entry): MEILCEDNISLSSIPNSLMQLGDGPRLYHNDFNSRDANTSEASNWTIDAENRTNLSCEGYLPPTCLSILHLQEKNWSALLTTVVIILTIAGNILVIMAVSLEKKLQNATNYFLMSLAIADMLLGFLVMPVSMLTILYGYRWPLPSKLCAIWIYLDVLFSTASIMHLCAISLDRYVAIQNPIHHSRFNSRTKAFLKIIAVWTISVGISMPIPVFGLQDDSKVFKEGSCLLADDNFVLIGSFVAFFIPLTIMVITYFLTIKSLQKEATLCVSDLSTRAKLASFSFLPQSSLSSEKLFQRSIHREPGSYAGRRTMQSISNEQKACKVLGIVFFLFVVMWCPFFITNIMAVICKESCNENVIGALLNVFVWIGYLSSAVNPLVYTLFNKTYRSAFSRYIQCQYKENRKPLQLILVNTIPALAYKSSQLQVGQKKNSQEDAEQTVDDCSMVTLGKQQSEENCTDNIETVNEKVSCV

`Nc1ccccc1CN1C2CCC1CC(NC(=O)c1ccc3ccccc3c1)C2` (stereo not shown) [Compound 19a]: the melting point (usually the temperature, or range, at which the solid turns liquid) fell in the range of 172.7 to 173.3 °C. In addition, at dopamine D2 receptors [1], the Ki (in general, the dissociation constant of the complex between target and ligand, obtained from inhibition or displacement) worked out at 41.5 ± 1.5 nM. For the same compound, the IC50 – broadly, the concentration needed to halve the response being measured – at dopamine D2 receptors [1] (rat brain tissues, read-out: D2 IC50 [nM] ± SEM) came out at 209 ± 5.5 nM. Also, the Ki in data set [2] came to 53 ± 2 nM. Moreover, in [2] (rat brain tissues, read-out: 5-HT1A IC50 [nM] ± SEM), the IC50 turned out to be 159 ± 5.5 nM. The compound also yielded a Ki in [3] of 46.8 ± 5.5 nM. In [3] (rat brain tissues, read-out: 5-HT2A IC50 [nM] ± SEM), the IC50 turned out to be 173 ± 19.3 nM. In addition, in the data set on CD-1 mice [4] (setting [12]), the “Number of crossings/60 min Mean ± SEM” value is given as 1634.4 ± 511.9 F(2,27) = 0.7417; NS crossings/60 min. In the data set with CD-1 mice [4] (setting [13]), the “Number of crossings/60 min Mean ± SEM” value is on record as 1480.4 ± 302.3 crossings/60 min. For the same compound, the “decrease of spontaneous locomotor activity” value in the data set with CD-1 mice [4] (10 mg/kg) is reported as “about 70%”. For the same compound, in the data set on CD-1 mice [4] (setting [14]), the “Number of crossings/60 min Mean ± SEM” value is recorded as 491.6 ± 126.5 F(2,26) = 5.3557; p < 0.05 crossings/60 min. For the same compound, the “Number of punished crossings /1 min Mean ± SEM” value in the data set with Albino Swiss mice [5] (setting [12]) amounted to 3.2 ± 0.5 crossings/1 min. Besides, the “Number of punished crossings /1 min Mean ± SEM” value in the data set on Albino Swiss mice [5] (setting [13]) is given as 1.1 ± 0.2 crossings/1 min. For the same compound, in the data set on Albino Swiss mice [5] (setting [14]), the “Number of punished crossings /1 min Mean ± SEM” value was 3.2 ± 0.5 F(3,33) = 5.6670; p < 0.01 crossings/1 min. Moreover, the “Immobility time (s) Mean ± SEM” value in the data set with Albino Swiss mice [6] (1.25 mg/kg i.p. 30 min before test) was 120.00 ± 16.6 s. Further, the “Immobility time (s) Mean ± SEM” value in the data set on Albino Swiss mice [6] (setting [12]) was determined as 128.89 ± 12.3 s. Also, the “decrease of immobility time vs. respective control group” value in the data set on Albino Swiss mice [6] (5 mg/kg i.p.) is “about 43%”. The “Immobility time (s) Mean ± SEM” value with Albino Swiss mice [6] (setting [13]) is listed as 96.56 ± 16.2; p < 0,01 F(3,31) = 4.5279; p < 0.01 s. Further, the “effect on MK-801-induced hyperlocomotor activity” value in the data set on CD-1 mice [7] (5 mg/kg and 10 mg/kg i.p.) is given as “significantly reduced”. The “Number of crossings/60 min Mean ± SEM” value in the data set with CD-1 mice [7] (compound 1.25 mg/kg i.p. 30 min + MK-801 0.2 mg/kg) was 4646.4 ± 675.6; ns, ns crossings/60 min. Further, in the data set with CD-1 mice [7] (compound 2.5 mg/kg i.p. 30 min + MK-801 0.2 mg/kg), the “Number of crossings/60 min Mean ± SEM” value is listed as 3832.0 ± 991.3; ns, ns F(3,33) = 5.2088; p < 0.01 crossings/60 min. Besides, the “Number of crossings/60 min Mean ± SEM” value with CD-1 mice [7] (compound 5 mg/kg i.p. 30 min + MK-801 0.2 mg/kg) was 2915.4 ± 580.2; p < 0.001 vs. MK; ns vs. contr F(2,27) = 16.679; p < 0.0001 crossings/60 min. The “Number of crossings/60 min Mean ± SEM” value in the data set on CD-1 mice [7] (compound 10 mg/kg i.p. 30 min + MK-801 0.2 mg/kg) is 808.7 ± 66.3; p < 0.0001 vs. Mk; p < 0.05 vs. contr F(2,20) = 23.813; p < 0.001 crossings/60 min. In addition, the “Number of crossings/60 min Mean ± SEM” value in the data set on CD-1 mice [8] (compound 5 mg/kg i.p. + d-amphetamine 2.5 mg/kg s.c.) is listed as 4328.6 ± 1146.8 crossings/60 min. Further, the “Number of crossings/60 min Mean ± SEM” value with CD-1 mice [8] (compound 10 mg/kg i.p. + d-amphetamine 2.5 mg/kg s.c.) was 950.0 ± 411.7; p < 0.01 vs. amph.; ns vs. contr F(3,35) = 5.6910; p < 0.01 crossings/60 min. The “activity in d-amphetamine-induced hyperlocomotor activity test” value in the data set with CD-1 mice [8] (i.p.) is reported as “active in this test only at a dose of 10 mg/kg i.p”.
Consider `O=C(NC1CC2CCC(C1)N2Cc1cccc(Br)c1)c1ccc2ccccc2c1` (stereo not shown) [R = -Br], for which the inhibitory constant (Ki) in [9] is 106 nM.
Consider `Cc1cccc(CN2C3CCC2CC(NC(=O)c2ccc4ccccc4c2)C3)c1` (stereo not shown) [R = -CH3], for which the Ki in data set [9] is 231 nM.
As to `O=C(NC1CC2CCC(C1)N2Cc1ccccc1)c1ccc2ccccc2c1` (stereo not shown) [compound A], the inhibition constant (Ki) on dopamine D2 receptors [10] was 82.4 nM; in data set [11], 304 nM; in data set [9], 2.5 nM.
